This note sets out measurements from patent US20250257075A1, “MACROCYCLIC INHIBITORS OF KRAS FOR THE TREATMENT OF CANCER” (Hoffmann-La Roche Inc., priority 2022, published 2025).

For assay [1], the system named is NCI-H358 cells (KRAS G12C). The assay is described as follows: Cell viability assay, G12C. The assay is classed as cell-based, human. The note with it: NCI-H358, 72 hrs, Cell Counting Kit-8. The essentials: (§1)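 After overnight attachment, cells received compounds (0.5% DMSO) for 72 hrs; viability was then quantified with CCK-8, reading OD450 minus OD650, and IC50 values were obtained from a 4-parameter concentration-response fit.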
(In general: Formazan colour is commonly taken as a measure of viable cells.)

The next assay relates to AGS cells (KRAS G12D). The assay is described as follows: Cell viability assay, G12D. The assay is classed as cell-based, human. As to conditions: 72 hrs, Cell Counting Kit-8. The gist of the method: as §1
Another assay has as its system SW620 cells (KRAS G12V). Put plainly: Cell viability assay, G12V. As to conditions: SW620, 72 hrs, Cell Counting Kit-8. The assay is classed as cell-based, human. The gist of the method:
as §1

The target in assay [2] is T1, KRAS G12C-BRAF complex (Homo sapiens, UniProt P01116+P62937, G12C).
T1 construct: expressed in transfected cells
T1 sequence (P01116 1-188 isoform P01116-2 G12C): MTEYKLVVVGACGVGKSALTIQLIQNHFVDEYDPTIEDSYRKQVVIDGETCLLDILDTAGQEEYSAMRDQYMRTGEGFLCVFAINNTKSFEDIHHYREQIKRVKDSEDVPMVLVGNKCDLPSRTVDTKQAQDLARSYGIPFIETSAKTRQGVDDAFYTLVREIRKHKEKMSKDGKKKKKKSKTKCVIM
T1 sequence (P62937 whole entry): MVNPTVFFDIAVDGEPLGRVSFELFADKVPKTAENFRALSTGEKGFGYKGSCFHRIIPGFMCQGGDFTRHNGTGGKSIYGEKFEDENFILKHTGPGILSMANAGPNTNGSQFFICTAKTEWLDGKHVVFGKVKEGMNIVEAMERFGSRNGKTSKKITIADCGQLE
The assay is described as follows: KRAS G12C-BRAF NanoBit assay in HEK293 cells. The class given is cell-based. As to conditions: HEK293 stable cell pool, 3 hours of incubation. The gist of the method: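 HEK293 stable pool co-expressing SmBiT-KRAS G12C and BRAF RBD-LgBiT, exposed 3 h to compounds (16-point 3-fold dilution, top final 30 μM). Luminescence was read 20 min after Nano-Glo Live Cell substrate addition. A decrease versus DMSO control indicates disruption of the complex.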

The target of assay [3] is T1, KRAS G12C-BRAF complex. The assay is described as follows: KRAS-BRAF with CYPA (500 nM) interaction assay (TR-FRET), G12C. The assay is classed as biochemical. As to conditions: 3 hours. As for the experimental part: (§2) Kras-BRAF with CYPA (500 nM) Interaction Assay In this example, TR-FRET was also used to measure the compound or compound-CYPA dependent disruption of the KRAS G12C-BRAF complex. This protocol was also used to measure disruption of KRAS G12D or KRAS G12V binding to BRAF by a compound of the invention, respectively. […] TR-FRET signal was read on a […] microplate reader (Ex320 nm, Em 665/615 nm). Compounds that facilitate disruption of the KRAS-BRAF complex were identified as those eliciting a decrease in the TR-FRET ratio relative to DMSO control wells.
(In general: TR-FRET usually uses a lanthanide donor and a delayed reading to cut background.)

Assay [4] deals with KRAS G12D binding to BRAF (Homo sapiens, UniProt P01116+P62937, G12D). Put plainly: KRAS-BRAF with CYPA (500 nM) interaction assay (TR-FRET), G12D. The assay is classed as biochemical. The note with it: 3 hours. As for the experimental part:
as §2

The target in assay [5] is KRAS G12V binding to BRAF (Homo sapiens, UniProt P01116+P62937, G12V). The assay is described as follows: KRAS-BRAF with CYPA (500 nM) interaction assay (TR-FRET), G12V. The assay is classed as biochemical. As to conditions: 3 hours. As for the experimental part:
as §2

Assay [6] concerns phosphorylation of ERK, KRAS G12C in NCI-H358 cells. The assay is described as follows: pERK inhibition assay, G12C. The class given is cell-based, human. The note with it: NCI-H358, 4 hours of incubation. The gist of the method: (§3)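 NCI-H358 (G12C), AGS (G12D) and SW620 (G12V) cells were seeded overnight at 30,000, 20,000 and 30,000 cells/well, respectively. They were then treated 4 h with compound (0.5% DMSO final), fixed, and methanol-permeabilized. pERK was detected by in-cell ELISA (anti-pERK/HRP, TMB, OD450); IC50 from a 4-parameter sigmoidal fit.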

The test system of assay [7] is phosphorylation of ERK, KRAS G12D in AGS cells. The assay is described as follows: pERK inhibition assay, G12D. The class given is cell-based, human. As to conditions: 4 hours of incubation. The essentials: as §3
The test system of assay [8] is phosphorylation of ERK, KRAS G12V in SW620. The assay is described as follows: pERK inhibition assay, G12V. The class given is cell-based, human. The note with it: SW620, 4 hours of incubation. The essentials: as §3

Some results are limits rather than exact numbers.

KRAS G12D binding to BRAF, sequence (P01116 1-188 isoform P01116-2 G12D): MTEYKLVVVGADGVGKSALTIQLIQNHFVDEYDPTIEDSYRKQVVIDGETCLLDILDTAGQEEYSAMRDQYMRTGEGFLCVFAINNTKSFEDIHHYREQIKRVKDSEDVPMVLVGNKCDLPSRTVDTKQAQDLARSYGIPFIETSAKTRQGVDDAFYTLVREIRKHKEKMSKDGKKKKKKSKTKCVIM
KRAS G12D binding to BRAF, sequence (P62937 whole entry): as the sequence (P62937 whole entry) above
KRAS G12V binding to BRAF, sequence (P01116 1-188 isoform P01116-2 G12V): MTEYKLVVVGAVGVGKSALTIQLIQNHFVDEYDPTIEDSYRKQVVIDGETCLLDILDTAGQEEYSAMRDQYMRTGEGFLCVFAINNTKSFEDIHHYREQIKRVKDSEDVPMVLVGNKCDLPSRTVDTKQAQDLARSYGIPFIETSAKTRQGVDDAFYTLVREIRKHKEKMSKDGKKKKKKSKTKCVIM
KRAS G12V binding to BRAF, sequence (P62937 whole entry): as the sequence (P62937 whole entry) above

Consider `CO[C@@H](C)c1ncc(N2CCN(C)CC2)cc1-c1c2c3c(F)c(ccc3n1CC(F)(F)F)-c1csc(n1)C[C@H](NC(=O)[C@H](C(C)C)N(C)C(=O)[C@H]1C[C@@H](C#CC(F)(F)F)C1)C(=O)N1CCC[C@H](N1)C(=O)OCC(C)(C)C2` (atropisomer, axis not shown; (M)) [Example 12, cis-N-[(1S)-1-[[(7S,13S)-25-fluoro-(20M)-20-[2-[(1S)-1-methoxyethyl]-5-(4-methylpiperazin-1-yl)-3-pyridyl]-17,17-dimethyl-8,14-dioxo-21-(2,2,2-trifluoroethyl)-15-oxa-4-thia-9,21,27,28-tetrazapentacyclo[17.5.2.1^2,5.1^9,13.0^22,26]octacosa-1(25),2,5(28),19,22(26),23-hexaen-7-yl]carbamoyl]-2-methyl-propyl]-N-methyl-3-(3,3,3-trifluoroprop-1-ynyl)cyclobutanecarboxamide], for which the IC50 – broadly, the concentration needed to halve the response being measured – in assay [1] (Homo sapiens) came to 0.033 µM; in the assay with AGS cells (KRAS G12D) (Homo sapiens), 3.1 µM; in the assay with SW620 cells (KRAS G12V) (Homo sapiens, SW-620) it was 0.36 µM; on KRAS G12C-BRAF complex [2], 0.067 µM; against KRAS G12C-BRAF complex [3], 0.063 µM; in assay [4], 1.47 µM. Further, the IC50 stood at 0.484 µM in assay [5]; 0.092 µM in [6] (Homo sapiens); 0.667 µM in assay [7] (Homo sapiens); 0.201 µM in assay [8] (Homo sapiens, SW-620).
Take `CO[C@@H](C)c1ncc(N2CCN(C)CC2)cc1-c1c2c3cc(c(F)cc3n1CC(F)(F)F)-c1csc(n1)C[C@H](NC(=O)[C@H](C(C)C)N(C)C(=O)[C@H]1C[C@@H](C#Cc3ncc(C(F)(F)F)cn3)C1)C(=O)N1CCC[C@H](N1)C(=O)OCC(C)(C)C2` (atropisomer, axis not shown; (M)) [Example 13, cis-N-[(1S)-1-[[(7S,13S)-24-fluoro-(20M)-20-[2-[(1S)-1-methoxyethyl]-5-(4-methylpiperazin-1-yl)-3-pyridyl]-17,17-dimethyl-8,14-dioxo-21-(2,2,2-trifluoroethyl)-15-oxa-4-thia-9,21,27,28-tetrazapentacyclo[17.5.2.1^2,5.1^9,13.0^22,26]octacosa-1(25),2,5(28),19,22(26),23-hexaen-7-yl]carbamoyl]-2-methyl-propyl]-N-methyl-3-[2-[5-(trifluoromethyl)pyrimidin-2-yl]ethynyl]cyclobutanecarboxamide]: the IC50 in assay [1] (Homo sapiens) is 0.006 µM; with AGS cells (KRAS G12D) (Homo sapiens), 0.328 µM; with SW620 cells (KRAS G12V) (Homo sapiens, SW-620), 0.036 µM; against KRAS G12C-BRAF complex [2], 0.22 µM; on KRAS G12C-BRAF complex [3] it was 0.065 µM; in assay [4], more than 10 µM. For the same compound, the half-inhibitory concentration (IC50) was more than 10 µM in assay [5]; 0.045 µM in assay [6] (Homo sapiens); 1.81 µM in assay [7] (Homo sapiens); 0.056 µM in assay [8] (Homo sapiens, SW-620).
Regarding `CCn1c(-c2cc(N3CCN(C)CC3)cnc2[C@H](C)OC)c2c3cc(c(F)cc31)-c1csc(n1)C[C@H](NC(=O)[C@H](C(C)C)N(C)C(=O)N1CC(C#CC(F)(F)F)C1)C(=O)N1CCC[C@H](N1)C(=O)OCC(C)(C)C2` (atropisomer, axis not shown; (M)) [Example 14, N-[(1S)-1-[[(7S,13S)-21-ethyl-24-fluoro-(20M)-20-[2-[(1S)-1-methoxyethyl]-5-(4-methylpiperazin-1-yl)-3-pyridyl]-17,17-dimethyl-8,14-dioxo-15-oxa-4-thia-9,21,27,28-tetrazapentacyclo[17.5.2.1^2,5.1^9,13.0^22,26]octacosa-1(25),2,5(28),19,22(26),23-hexaen-7-yl]carbamoyl]-2-methyl-propyl]-N-methyl-3-(3,3,3-trifluoroprop-1-ynyl)azetidine-1-carboxamide], the IC50 in assay [1] (Homo sapiens) was 0.001 µM; in the assay on AGS cells (KRAS G12D) (Homo sapiens) it was more than 10 µM; in the assay with SW620 cells (KRAS G12V) (Homo sapiens, SW-620), 0.007 µM; against KRAS G12C-BRAF complex [2], 0.036 µM; against KRAS G12C-BRAF complex [3] it was 1.66 µM; in assay [4] it was 4.3 µM. Also, the 50% inhibitory concentration (IC50) in [5] was 1.88 µM; in assay [6] (Homo sapiens), 0.005 µM; in assay [7] (Homo sapiens) it was 0.02 µM; in [8] (Homo sapiens, SW-620) it was 0.003 µM.
Take `CO[C@@H](C)c1ncc(N2CCN(C)CC2)cc1-c1c2c3cc(c(F)cc3n1CC(F)(F)F)-c1csc(n1)C[C@H](NC(=O)[C@H](C(C)C)N(C)C(=O)[C@H]1C[C@@H](C#Cc3ncccn3)C1)C(=O)N1CCC[C@H](N1)C(=O)OCC(C)(C)C2` (relative stereo) [Example 5, cis-N-[(1S)-1-[[(7S,13S)-24-fluoro-(20M)-20-[2-[(1S)-1-methoxyethyl]-5-(4-methylpiperazin-1-yl)-3-pyridyl]-17,17-dimethyl-8,14-dioxo-21-(2,2,2-trifluoroethyl)-15-oxa-4-thia-9,21,27,28-tetrazapentacyclo[17.5.2.1^2,5.1^9,13.0^22,26]octacosa-1(25),2,5(28),19,22(26),23-hexaen-7-yl]carbamoyl]-2-methyl-propyl]-N-methyl-3-(2-pyrimidin-2-ylethynyl)cyclobutanecarboxamide]: the IC50 in [1] worked out at 0.007 µM; in the assay with AGS cells (KRAS G12D) it was 0.536 µM; in the assay on SW620 cells (KRAS G12V), 0.23 µM; against KRAS G12C-BRAF complex [2] it was 0.106 µM; against KRAS G12C-BRAF complex [3] it was 0.128 µM; in assay [4] it was 9.95 µM. The IC50 in assay [5] was 1.1 µM; in assay [6] it was 0.058 µM; in assay [7], 0.145 µM; in [8], less than 0.001 µM.
Take `CO[C@@H](C)c1ncc(N2CCN(C)CC2)cc1-c1c2c3cc(c(F)cc3n1CC(F)(F)F)-c1csc(n1)C[C@H](NC(=O)[C@@H](CC(=O)N1CC(C#CC(F)(F)F)C1)C(C)C)C(=O)N1CCC[C@H](N1)C(=O)OCC(C)(C)C2` [Example 19, (2S)—N-[(7S,13S)-24-fluoro-(20M)-20-[2-[(1S)-1-methoxyethyl]-5-(4-methylpiperazin-1-yl)-3-pyridyl]-17,17-dimethyl-8,14-dioxo-21-(2,2,2-trifluoroethyl)-15-oxa-4-thia-9,21,27,28-tetrazapentacyclo[17.5.2.1^2,5.1^9,13.0^22,26]octacosa-1(25),2,5(28),19,22(26),23-hexaen-7-yl]-2-isopropyl-4-oxo-4-[3-(3,3,3-trifluoroprop-1-ynyl)azetidin-1-yl]butanamide]: the IC50 in [1] (Homo sapiens) is 0.166 µM; in the assay on AGS cells (KRAS G12D) (Homo sapiens), 3.34 µM; in the assay on SW620 cells (KRAS G12V) (Homo sapiens, SW-620), 0.653 µM; on KRAS G12C-BRAF complex [2], 0.075 µM; against KRAS G12C-BRAF complex [3] it was 0.24 µM; in assay [4] it was more than 10 µM. Besides, the IC50 in assay [5] was 2.25 µM; in assay [6] (Homo sapiens), 0.221 µM; in [7] (Homo sapiens) it was more than 10 µM; in assay [8] (Homo sapiens, SW-620), 0.198 µM.
